# Biological target: T1, human GluN1/GluN2B NMDA receptors (Homo sapiens, UniProt Q05586+Q13224)
# T1 construct: expressed in transfected cells
# Assay: Calcium flux (FLIPR) assay on cloned human NR1/GluN2B ion channels expressed in mammalian cells, standard assay
# Assay type: cell-based
# Conditions: glutamate ~EC40 and 10 μM glycine, stable cell line with Tet-On induced expression
# Method in brief: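 Tet-On-induced stable mammalian line loaded with Calcium 5 dye (0.5 mM MgCl2 loading buffer), then assayed in pH 7.4 buffer with 137 mM NaCl, 4 mM KCl, 2 mM CaCl2. Compound was added for 5 min, then glutamate (~EC40) plus 10 µM glycine for 5 min. FLIPR fluorescence was normalized to control wells.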
# T1 sequence (Q13224 27-1484, other chains not shown): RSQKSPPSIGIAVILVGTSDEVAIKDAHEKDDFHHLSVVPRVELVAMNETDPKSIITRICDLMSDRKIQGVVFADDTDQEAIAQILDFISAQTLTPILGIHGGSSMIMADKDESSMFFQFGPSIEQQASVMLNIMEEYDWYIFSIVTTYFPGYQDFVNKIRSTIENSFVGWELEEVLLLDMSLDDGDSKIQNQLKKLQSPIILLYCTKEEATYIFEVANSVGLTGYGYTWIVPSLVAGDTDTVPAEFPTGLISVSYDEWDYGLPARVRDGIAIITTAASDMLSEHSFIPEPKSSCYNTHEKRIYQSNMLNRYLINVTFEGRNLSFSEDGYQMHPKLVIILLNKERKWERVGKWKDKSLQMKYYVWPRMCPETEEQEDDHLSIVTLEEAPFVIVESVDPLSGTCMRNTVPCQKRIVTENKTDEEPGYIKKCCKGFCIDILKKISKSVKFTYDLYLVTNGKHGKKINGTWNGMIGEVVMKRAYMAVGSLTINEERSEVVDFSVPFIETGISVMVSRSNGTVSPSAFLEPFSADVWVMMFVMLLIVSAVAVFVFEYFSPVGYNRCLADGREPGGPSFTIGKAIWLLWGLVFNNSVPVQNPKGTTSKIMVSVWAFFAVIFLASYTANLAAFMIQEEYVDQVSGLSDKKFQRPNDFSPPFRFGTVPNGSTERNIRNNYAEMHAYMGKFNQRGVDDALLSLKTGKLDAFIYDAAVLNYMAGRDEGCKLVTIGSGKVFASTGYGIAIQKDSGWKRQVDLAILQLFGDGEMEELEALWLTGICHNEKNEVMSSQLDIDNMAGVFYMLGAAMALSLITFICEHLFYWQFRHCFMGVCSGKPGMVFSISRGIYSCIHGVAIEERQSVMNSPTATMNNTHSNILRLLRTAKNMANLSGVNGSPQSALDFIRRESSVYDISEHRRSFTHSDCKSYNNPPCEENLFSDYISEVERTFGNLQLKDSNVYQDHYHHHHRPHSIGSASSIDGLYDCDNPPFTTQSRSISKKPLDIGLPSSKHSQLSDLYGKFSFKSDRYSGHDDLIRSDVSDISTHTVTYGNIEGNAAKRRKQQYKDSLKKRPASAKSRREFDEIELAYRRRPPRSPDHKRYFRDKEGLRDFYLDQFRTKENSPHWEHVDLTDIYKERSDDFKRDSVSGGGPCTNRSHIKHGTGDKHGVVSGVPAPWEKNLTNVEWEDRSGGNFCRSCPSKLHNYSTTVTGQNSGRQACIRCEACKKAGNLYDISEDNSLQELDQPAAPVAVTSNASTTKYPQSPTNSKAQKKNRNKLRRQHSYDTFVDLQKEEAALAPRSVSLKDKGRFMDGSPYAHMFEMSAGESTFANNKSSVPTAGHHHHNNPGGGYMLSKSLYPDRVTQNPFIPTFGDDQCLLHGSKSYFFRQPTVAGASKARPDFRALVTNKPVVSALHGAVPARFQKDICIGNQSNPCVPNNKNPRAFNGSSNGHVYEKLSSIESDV
row,SMILES,IC50
1,"CC1(Cn2ncc3ncc(-c4ccc(F)c(C(F)F)c4)cc32)COC1 [Example 110, 6-[3-(Difluoromethyl)-4-fluoro-phenyl]-1-[(3-methyloxetan-3-yl)methyl]pyrazolo[4,3-b]pyridine]",2.06 µM
2,"CN1CC[C@@H](Cn2ncc3ncc(-c4ccc(F)c(C(F)F)c4)cc32)C1=O [Example 117, (S)-3-[[6-[3-(Difluoromethyl)-4-fluoro-phenyl]pyrazolo[4,3-b]pyridin-1-yl]methyl]-1-methyl-pyrrolidin-2-one]",1.21 µM
3,"CN1CC[C@H](Cn2ncc3ncc(-c4ccc(F)c(C(F)F)c4)cc32)C1=O [Example 118, (R)-3-[[6-[3-(Difluoromethyl)-4-fluoro-phenyl]pyrazolo[4,3-b]pyridin-1-yl]methyl]-1-methyl-pyrrolidin-2-one]",0.125 µM
4,"CN1C[C@@H](Cn2ncc3ncc(-c4ccc(F)c(C(F)F)c4)cc32)CC1=O [Example 121, (S)-4-[[6-[3-(Difluoromethyl)-4-fluoro-phenyl]pyrazolo[4,3-b]pyridin-1-yl]methyl]-1-methyl-pyrrolidin-2-one]",0.685 µM
5,"CN1C[C@H](Cn2ncc3ncc(-c4ccc(F)c(C(F)F)c4)cc32)CC1=O [Example 122, (R)-4-[[6-[3-(Difluoromethyl)-4-fluoro-phenyl]pyrazolo[4,3-b]pyridin-1-yl]methyl]-1-methyl-pyrrolidin-2-one]",0.12 µM
6,CN1C[C@H](Cn2ncc3ncc(-c4ccc(F)c(C(F)F)c4)cc32)OC1=O [Example 129],0.03 µM

# Next, values leading:
row,IC50,SMILES
1,0.478 µM,"CN1C[C@@H](Cn2ncc3ncc(-c4ccc(F)c(C(F)F)c4)cc32)OC1=O [Example 130, (5S)-5-[[6-[3-(Difluoromethyl)-4-fluoro-phenyl]pyrazolo[4,3-b]pyridin-1-yl]methyl]-3-methyl-oxazolidin-2-one]"
2,1.43 µM,"CCN1C[C@@H](Cn2ncc3ncc(-c4ccc(F)c(C(F)F)c4)cc32)OC1=O [Example 132, (S)-5-[[6-[3-(Difluoromethyl)-4-fluoro-phenyl]pyrazolo[4,3-b]pyridin-1-yl]methyl]-3-ethyl-oxazolidin-2-one]"
3,0.204 µM,"CCN1C[C@H](Cn2ncc3ncc(-c4ccc(F)c(C(F)F)c4)cc32)OC1=O [Example 133, (R)-5-[[6-[3-(Difluoromethyl)-4-fluoro-phenyl]pyrazolo[4,3-b]pyridin-1-yl]methyl]-3-ethyl-oxazolidin-2-one]"
4,> 3 µM,"O=C1O[C@H](Cn2ncc3ncc(-c4ccc(F)c(C(F)F)c4)cc32)CN1C1CC1 [Example 135, (S)-3-Cyclopropyl-5-[[6-[3-(difluoromethyl)-4-fluoro-phenyl]pyrazolo[4,3-b]pyridin-1-yl]methyl]oxazolidin-2-one]"
5,0.997 µM,"O=C1O[C@@H](Cn2ncc3ncc(-c4ccc(F)c(C(F)F)c4)cc32)CN1C1CC1 [Example 136, (R)-3-Cyclopropyl-5-[[6-[3-(difluoromethyl)-4-fluoro-phenyl]pyrazolo[4,3-b]pyridin-1-yl]methyl]oxazolidin-2-one]"
6,0.036 µM,"O=C(Cn1ncc2ncc(-c3ccc(F)c(C(F)F)c3)cc21)c1cccs1 [Example 137, 2-[6-[3-(Difluoromethyl)-4-fluoro-phenyl]pyrazolo[4,3-b]pyridin-1-yl]-1-(2-thienyl)ethanone]"
7,0.1 µM,"O=C(Cn1ncc2ncc(-c3ccc(F)c(C(F)F)c3)cc21)c1ccsc1 [Example 138, 2-[6-[3-(Difluoromethyl)-4-fluoro-phenyl]pyrazolo[4,3-b]pyridin-1-yl]-1-(3-thienyl)ethanone]"
8,0.118 µM,"O=C(Cn1ncc2ncc(-c3ccc(F)c(C(F)F)c3)cc21)c1ccncc1 [Example 139, 2-[6-[3-(Difluoromethyl)-4-fluoro-phenyl]pyrazolo[4,3-b]pyridin-1-yl]-1-(4-pyridyl)ethanone]"
9,0.191 µM,"O=C(Cn1ncc2ncc(-c3ccc(F)c(C(F)F)c3)cc21)c1ncccc1F [Example 140, 2-(6-(3-(Difluoromethyl)-4-fluorophenyl)-1H-pyrazolo[4,3-b]pyridin-1-yl)-1-(3-fluoropyridin-2-yl)ethan-1-one]"

# Source: patent publication US11161846B2, “Substituted pyrazolo[4,3-b]pyridines and their use as GluN2B receptor modulators” (JANSSEN PHARMACEUTICA NV, priority 2019, dated 2021)
